Data reported in the NIST ThermoML archive (doi:10.1021/je900327x).
Numbers after ± are expanded uncertainties.

Tests used:
[1] = 298.15 K; 101.33 kPa; Liquid; Vibrating tube method
[2] = refractive index (Na D-line) (dimensionless); settings: 298.15 K; 101.33 kPa; Liquid; Standard Abbe refractometry

mass density [1] [kg/m3] | refractive index [2] | SMILES
781.01 ± 0.2 | 1.37509 ± 0.00068 | CC(C)O [propan-2-ol]
1058.87 ± 0.15 | 1.39779 ± 0.00068 | C1COCO1 [1,3-dioxolane]
687.73 ± 0.21 | 1.38887 ± 0.00068 | CC(C)CC(C)(C)C [2,2,4-trimethylpentane]
